# Entries after “also recorded” stand apart in the source; their conditions may differ.
# How the values were obtained:
# [1] = test system: CCM3-knockout brain endothelial cells in primary culture; test: rtPCR of b-catenin target genes in primary cultures of CCM3-knockout brain endothelial cells; type: cell-based, mouse; parameters: dose or concentration left out as unconfirmed; conditions: 48 h
# Text: Endothelial cells from the CCM3-flox/flox mice (8-10 weeks old) were isolated from the brain as previously described^13. Recombination of the floxed CCM3 gene was induced by treating the cells at culture day 1 with the AdenoCre viral vector, as previously described^59. The control endothelial cells were an aliquot of the same endothelial cell preparation treated with AdenoGFP, instead of AdenoCre. The cells were then maintained in culture for up to a further 7 days before analysis, as described in the main text. Drug treatments were for 48 h before the processing of the cells. Drugs were added to confluent cells for 48 h before the indicated assays. The final concentrations used were: […] (all from Sigma-Aldrich). As all of these were dissolved in DMSO, control treatment (vehicle) was 0.1% DMSO final concentration, as for drug treatment. RNA extraction was performed with RNeasy kits (74106; Promega). The RNA (1 μg) was reverse transcribed with random hexamers (High Capacity cDNA Archive kits; Applied Biosystems). […] For each sample, the expression levels were determined with the comparative threshold cycle (Ct) method, and normalized to the housekeeping genes encoding 18S and glyceraldehyde-3-phosphate dehydrogenase (GAPDH). […]
# [2] = test system: CCM3-knockout brain endothelial cells in primary culture; test: Immunostaining of CCM3-knockout brain endothelial cells in primary culture; type: cell-based, mouse; conditions: 48 h
# Text: Endothelial cells from the CCM3-flox/flox mice (8-10 weeks old) were isolated from the brain as previously described^13. Recombination of the floxed CCM3 gene was induced by treating the cells at culture day 1 with the AdenoCre viral vector, as previously described^59. The control endothelial cells were an aliquot of the same endothelial cell preparation treated with AdenoGFP, instead of AdenoCre. The cells were then maintained in culture for up to a further 7 days before analysis, as described in the main text. Drug treatments were for 48 h before the processing of the cells. Drugs were added to confluent cells for 48 h before the indicated assays. The final concentrations used were: […] (all from Sigma-Aldrich). As all of these were dissolved in DMSO, control treatment (vehicle) was 0.1% DMSO final concentration, as for drug treatment. Cells cultured in vitro were fixed and stained as described previously^46. The following antibodies were used: […] (hamster; MAB1398Z, Millipore); anti-b-galactosidase (chicken; ab9361, Abcam); anti-VE-cadherin (rat monoclonal; 550548, BD Biosciences); anti-VE-cadherin (goat; sc-6458, Santa Cruz); anti-active-b-catenin (mouse monoclonal clone 8E7) dephosphorylated on […] and Thr41, Millipore); anti-total-b-catenin (mouse monoclonal; […] AF3158, R&D); anti-CD44 (rat; 553131, BD Biosciences); anti-ID1 (rabbit; sc-488, Santa Cruz); anti-aSMA (mouse monoclonal; […], Sigma); anti-GFP (rabbit; A-6455, Invitrogen); anti-podocalyxin (goat; AF1556, R&D); anti-phospho-histone H3 (rabbit; ab51776, Millipore); anti-CCM3 (rabbit; Eurogentec); anti-p-Smad1 (rabbit; 9516, Cell Signaling); anti-endomucin (rabbit; sc-65495, Santa Cruz); anti-α-tubulin (mouse monoclonal; T9026, Sigma).
structure (smiles),measurement,setting,value
"CSc1ccc(/C=C2/C(C)=C(CC(=O)O)c3cc(F)ccc32)cc1 [sulindac sulfide, (Z)-5-Fluoro-2-methyl-1-[4-(methylthio)benzylidene]indene-3-acetic acid]","expression of endogenous b-catenin target genes (Klf4, Ly6a, S100a4, Id1; rtPCR)",[1],effectively inhibited
same,VE-cadherin at cell-cell contacts,[2],more localized to cell-cell contacts
same,nuclear localization of active b-catenin,[2],strongly inhibited
same,overexpression of Klf4 and S100a4 proteins,[2],inhibition; also recorded: inhibited

# Source: US20170027896A1, “METHODS AND COMPOSITIONS FOR THE TREATMENT OF VASCULAR MALFORMATION” (IFOM - FONDAZIONE ISTITUTO FIRC DI ONCOLOGIA MOLECOLARE, priority 2014, published 2017)
